The assay has as its target T1, CDK4/cyclin D3 (Homo sapiens, UniProt P11802).
T1 construct: made in house; host or cells: insect cells (baculovirus co-infection)
The assay is described as follows: Inhibition of CDK4/Cyclin D retinoblastoma kinase activity. It counts as biochemical. Particulars: for inhibition at 0.1 µM / % Inhib CDK4/D @ 0.1 μM: test compound at 0.1 μM; for inhibition at 0.1 µM: read-out: % Inhib CDK4/D @ 0.1 μM; for inhibition at 1 µM / % Inhib CDK4/D @ 1 μM: test compound at 1 μM (head line shifted: 'mM' printed beside 'Structure'); for inhibition at 1 µM: read-out: % Inhib CDK4/D @ 1 μM; for inhibition at 0.03 µM / % Inhib CDK4/D @ 0.03: test compound at 0.03 (unit cell empty, head line shifted; μM); for inhibition at 0.03 µM: read-out: % Inhib CDK4/D @ 0.03. The method, then:
Cyclin-dependent kinase activity was measured by quantifying the enzyme-catalyzed, time-dependent incorporation of radioactive phosphate from [^32P]ATP or [^33P]ATP into a protein substrate. Unless noted otherwise, assays were performed in 96-well plates in a total volume of 50 μL, in the presence of 10 mM HEPES (N-[2-hydroxyethyl]piperazine-N′-[2-ethanesulfonic acid]) (pH 7.4), 10 mM MgCl2, 25 μM adenosine triphosphate (ATP), 1 mg/mL ovalbumin, 5 μg/mL leupeptin, 1 mM dithiothreitol, 10 mM β-glycerophosphate, 0.1 mM sodium vanadate, 1 mM sodium fluoride, 2.5 mM ethylene glycol-bis(β-aminoethyl ether)-N,N,N′N′-tetraacetic acid (EGTA), 2% (v/v) dimethylsulfoxide, and 0.03-0.4 μCi [^32/33P]ATP per reaction. Reactions were initiated with enzyme, incubated at 30° C., and terminated after 20 minutes by the addition of ethylenediaminetetraacetic acid (EDTA) to 250 mM. The phosphorylated substrate was then captured on a nitrocellulose or phosphocellulose membrane using a 96-well filtration manifold, and unincorporated radioactivity was removed by repeated washing with 0.85% phosphoric acid. Radioactivity was quantified by exposing the dried membranes to a phosphorimager.
Inhibition was measured relative to control wells that contained all reaction components including 2% (v/v) DMSO but no compound, after subtraction of background radioactivity measured in the absence of enzyme. Apparent Ki values of discrete compounds were measured by assaying enzyme activity in the presence of different inhibitor compound concentrations and subtracting the background radioactivity measured in the absence of enzyme. The kinetic parameters (kcat, Km for ATP) were measured for each enzyme under the usual assay conditions by determining the dependence of initial rates on ATP concentration. Inhibition data were fit to an equation for competitive inhibition using Kaleidagraph (Synergy Software), or were fit to an equation for competitive tight-binding inhibition using the software KineTic (BioKin, Ltd.).
A complex of human CDK4 and genetically truncated (1-264) cyclin D3 was purified using traditional biochemical chromatographic techniques from insect cells that had been co-infected with the corresponding baculovirus expression vectors (see e.g., Meijer and Kim, “Chemical Inhibitors of Cyclin-Dependent Kinases,” Methods in Enzymol., 283, 113-128 (1997)). The enzyme complex (5 nM) was assayed with 0.3-0.5 μg of purified recombinant retinoblastoma protein fragment (Rb) as a substrate. The engineered Rb fragment (residues 386-928 of the native retinoblastoma protein; 62.3 kDa) contains the majority of the phosphorylation sites found in the native 106-kDa protein, as well as a tag of six histidine residues for ease of purification. Phosphorylated Rb substrate was captured by microfiltration on a nitrocellulose membrane and quantified using a phosphorimager as described above. For measurement of tight-binding inhibitors, the assay duration was extended to 60 minutes, during which the time-dependence of product formation was linear and initial rate conditions were met.

T1 sequence (P11802 whole entry): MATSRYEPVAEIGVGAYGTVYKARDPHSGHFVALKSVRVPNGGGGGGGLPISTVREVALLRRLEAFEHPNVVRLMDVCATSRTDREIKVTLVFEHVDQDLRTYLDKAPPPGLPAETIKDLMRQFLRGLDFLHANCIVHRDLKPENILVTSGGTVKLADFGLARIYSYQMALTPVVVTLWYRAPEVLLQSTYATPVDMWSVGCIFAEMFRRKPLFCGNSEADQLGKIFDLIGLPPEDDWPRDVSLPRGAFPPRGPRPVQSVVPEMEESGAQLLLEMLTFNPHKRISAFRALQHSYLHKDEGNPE
T1 sequence (P30281 1-264 partner limits assumed): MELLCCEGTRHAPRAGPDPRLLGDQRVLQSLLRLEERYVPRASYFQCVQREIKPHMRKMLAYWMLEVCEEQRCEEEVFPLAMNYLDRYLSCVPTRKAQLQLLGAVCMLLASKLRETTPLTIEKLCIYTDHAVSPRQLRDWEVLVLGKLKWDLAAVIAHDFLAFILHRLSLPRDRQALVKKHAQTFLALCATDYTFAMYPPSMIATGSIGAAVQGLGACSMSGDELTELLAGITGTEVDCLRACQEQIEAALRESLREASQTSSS

In the case of `CCOCC[S+]([O-])c1ccc(Nc2nc(N)c(C(=O)c3c(Cl)cccc3Cl)s2)cc1` (stereo not drawn) [DD(113)], the inhibition at 0.1 µM amounted to 30%, the inhibition at 1 µM was 59.4% and the inhibition at 0.03 µM worked out at 1.1%.

Take `Nc1nc(Nc2ccc(S(=O)(=O)CC3CNC(=O)O3)cc2)sc1C(=O)c1c(Cl)cccc1Cl` (stereo not drawn) [DD(169)]: the “% Inhib CDK4/D @ 1 μM” value turned out to be 36.4% and the “% Inhib CDK4/D @ 0.03” value amounted to 44%. For the same molecule, under “0.1 µM”, the “% Inhib CDK4/D @ 0.1 μM” value came to 33%.

Consider `NC(=O)CCSc1ccc(Nc2nc(N)c(C(=O)c3c(Cl)cccc3Cl)s2)cc1` [DD(29)], for which the “% Inhib CDK4/D @ 1 μM” value is 87.2% and the “% Inhib CDK4/D @ 0.03” value worked out at 24%. For the same molecule, the “% Inhib CDK4/D @ 0.1 μM” value (0.1 µM) came out at 50%.

As for `CC(=O)OCC[S+]([O-])c1cccc(Nc2nc(N)c(C(=O)c3c(Cl)cccc3Cl)s2)c1` (stereo not drawn) [DD(157)], the inhibition at 0.1 µM was determined as 42%, the inhibition at 1 µM stood at 59.7% and the inhibition at 0.03 µM stood at 21%.

With `NC(=O)CCSc1cccc(Nc2nc(N)c(C(=O)c3c(Cl)cccc3Cl)s2)c1` [DD(68)], the inhibition at 0.1 µM was found to be 52%, the inhibition at 1 µM stood at 77.4% and the inhibition at 0.03 µM came to 25%.

Regarding `Nc1nc(Nc2ccc(SCCN3CCCCC3)cc2)sc1C(=O)c1c(Cl)cccc1Cl` [DD(11)], the inhibition at 0.1 µM amounted to 28%, the inhibition at 1 µM was 78.1% and the inhibition at 0.03 µM amounted to 4.2%.

As to `CN1CCCC1CCS(=O)(=O)c1ccc(Nc2nc(N)c(C(=O)c3c(Cl)cccc3Cl)s2)cc1` (stereo not drawn) [DD(219)], the “% Inhib CDK4/D @ 1 μM” value turned out to be 19.5% and the “% Inhib CDK4/D @ 0.03” value is reported as 3.3%. For the same molecule, the “% Inhib CDK4/D @ 0.1 μM” value (0.1 µM) is 22%.

Consider `Nc1nc(Nc2cccc([S+]([O-])Cc3ncon3)c2)sc1C(=O)c1c(Cl)cccc1Cl` (stereo not drawn) [DD(128)], for which the inhibition at 0.1 µM was determined as 54%, the inhibition at 1 µM was determined as 49.9% and the inhibition at 0.03 µM was 12%.

Take `Nc1nc(Nc2ccc([S+]([O-])Cc3ncon3)cc2)sc1C(=O)c1c(Cl)cccc1Cl` (stereo not drawn) [DD(88)]: the inhibition at 0.1 µM was 56%, the inhibition at 1 µM amounted to 81.5% and the inhibition at 0.03 µM was determined as 4.1%.

For `Nc1nc(Nc2cccc(SCC3CC3)c2)sc1C(=O)c1c(Cl)cccc1Cl` [DD(56)], the inhibition at 0.1 µM was 17%, the inhibition at 1 µM came to 55.4% and the inhibition at 0.03 µM was 2.9%.

Regarding `CN(C)CC[S+]([O-])c1ccc(Nc2nc(N)c(C(=O)c3c(Cl)cccc3Cl)s2)cc1` (stereo not drawn) [DD(112)], the inhibition at 0.1 µM was found to be 27%, the inhibition at 1 µM was found to be 63.2% and the inhibition at 0.03 µM was -4.9%.

Turning to `CC(C)(CO)C[S+]([O-])c1cccc(Nc2nc(N)c(C(=O)c3c(Cl)cccc3Cl)s2)c1` (stereo not drawn) [DD(160)], the inhibition at 0.1 µM stood at 19%, the inhibition at 1 µM was found to be 49% and the inhibition at 0.03 µM came to 8.1%.

As for `Nc1nc(Nc2ccc(S(=O)(=O)CCN3CCCCC3)cc2)sc1C(=O)c1c(Cl)cccc1Cl` [DD(211)], the “% Inhib CDK4/D @ 0.1 μM” value is on record as 21%, the “% Inhib CDK4/D @ 1 μM” value is −0.2% and the “% Inhib CDK4/D @ 0.03” value was −11%.

`CC(C)OC(=O)CCSc1ccc(Nc2nc(N)c(C(=O)c3c(Cl)cccc3Cl)s2)cc1` [DD(38)]: the inhibition at 0.1 µM was 32%, the inhibition at 1 µM was 57.8% and the inhibition at 0.03 µM turned out to be 6.5%.

As for `CN1CCCC(CSc2cccc(Nc3nc(N)c(C(=O)c4c(Cl)cccc4Cl)s3)c2)C1` (stereo not drawn) [DD(67)], the inhibition at 0.1 µM stood at 14%, the inhibition at 1 µM is 49.1% and the inhibition at 0.03 µM was 4.3%.

`CC(CN(C)C)C[S+]([O-])c1ccc(Nc2nc(N)c(C(=O)c3c(Cl)cccc3Cl)s2)cc1` (stereo not drawn) [DD(83)]: the inhibition at 0.1 µM turned out to be 31%, the inhibition at 1 µM came to 43% and the inhibition at 0.03 µM is -17%.

Consider `CN(C)CCSc1ccc(Nc2nc(N)c(C(=O)c3c(Cl)cccc3Cl)s2)cc1` [DD(32)], for which the inhibition at 0.1 µM worked out at 14%, the inhibition at 1 µM came out at 61.3% and the inhibition at 0.03 µM worked out at 5.5%.

Turning to `CCN(CC)C(=O)CS(=O)(=O)c1ccc(Nc2nc(N)c(C(=O)c3c(Cl)cccc3Cl)s2)cc1` [DD(201)], the “% Inhib CDK4/D @ 1 μM” value stood at 10.3% and the “% Inhib CDK4/D @ 0.03” value is given as 3.5%. In addition, where the note is “0.1 µM”, the “% Inhib CDK4/D @ 0.1 μM” value came to 36%.

On to `Nc1nc(Nc2ccc(SCC(O)CO)cc2)sc1C(=O)c1c(Cl)cccc1Cl` (stereo not drawn) [DD(34)], for which the inhibition at 0.1 µM worked out at 52%, the inhibition at 1 µM stood at 89.3% and the inhibition at 0.03 µM came to 32%.

On to `COC(=O)C[S+]([O-])c1cccc(Nc2nc(N)c(C(=O)c3c(Cl)cccc3Cl)s2)c1` (stereo not drawn) [DD(146)], for which the inhibition at 0.1 µM stood at 53%, the inhibition at 1 µM was 47.6% and the inhibition at 0.03 µM was 15%.

With `CCOC(=O)CCSc1ccc(Nc2nc(N)c(C(=O)c3c(Cl)cccc3Cl)s2)cc1` [DD(22)], the inhibition at 0.1 µM turned out to be 9.1%, the inhibition at 1 µM turned out to be 56.2% and the inhibition at 0.03 µM was found to be 8.1%.

As to `CC(C)CCCSc1ccc(Nc2nc(N)c(C(=O)c3c(Cl)cccc3Cl)s2)cc1` [DD(30)], the inhibition at 0.1 µM is 13%, the inhibition at 1 µM is 32.3% and the inhibition at 0.03 µM came to 3.1%.

Take `Nc1nc(Nc2ccc(S(=O)(=O)Cc3ncon3)cc2)sc1C(=O)c1c(Cl)cccc1Cl` [DD(168)]: the inhibition at 1 µM turned out to be 30.7% and the “% Inhib CDK4/D @ 0.03” value was found to be 8.3%. In addition, for the setting “0.1 µM”, the “% Inhib CDK4/D @ 0.1 μM” value turned out to be 7.8%.

Regarding `Nc1nc(Nc2cccc([S+]([O-])CC3CC3)c2)sc1C(=O)c1c(Cl)cccc1Cl` (stereo not drawn) [DD(136)], the inhibition at 0.1 µM is 27%, the inhibition at 1 µM was 44.9% and the inhibition at 0.03 µM came to 14%.

For the molecule `CCOC(=O)CC[S+]([O-])c1cccc(Nc2nc(N)c(C(=O)c3c(Cl)cccc3Cl)s2)c1` (stereo not drawn) [DD(142)], the inhibition at 0.1 µM worked out at 36%, the inhibition at 1 µM amounted to 39.3% and the inhibition at 0.03 µM is -2.6%.

Take `Nc1nc(Nc2cccc(SCCN3CCCCC3)c2)sc1C(=O)c1c(Cl)cccc1Cl` [DD(51)]: the inhibition at 0.1 µM is 30%, the inhibition at 1 µM worked out at 75.6% and the inhibition at 0.03 µM was found to be 4.1%.

For `CN1CCCC1CCSc1cccc(Nc2nc(N)c(C(=O)c3c(Cl)cccc3Cl)s2)c1` (stereo not drawn) [DD(59)], the inhibition at 0.1 µM was found to be 37%, the inhibition at 1 µM came out at 57.4% and the inhibition at 0.03 µM was 20%.

As for `CC(CN(C)C)CS(=O)(=O)c1ccc(Nc2nc(N)c(C(=O)c3c(Cl)cccc3Cl)s2)cc1` (stereo not drawn) [DD(163)], the inhibition at 0.1 µM came out at 27%, the inhibition at 1 µM was found to be 52.8% and the inhibition at 0.03 µM was -5.8%.

Consider `COC(=O)/C=C/CS(=O)(=O)c1ccc(Nc2nc(N)c(C(=O)c3c(Cl)cccc3Cl)s2)cc1` [DD(204)], for which the “% Inhib CDK4/D @ 1 μM” value stood at 20.8% and the “% Inhib CDK4/D @ 0.03” value was −3.4%. In addition, where the note is “0.1 µM”, the “% Inhib CDK4/D @ 0.1 μM” value was 29%.

Take `Nc1nc(Nc2ccc(S(=O)(=O)CC3CC3)cc2)sc1C(=O)c1c(Cl)cccc1Cl` [DD(216)]: the “% Inhib CDK4/D @ 1 μM” value is on record as 47.1% and the “% Inhib CDK4/D @ 0.03” value worked out at 12%. Also, the “% Inhib CDK4/D @ 0.1 μM” value (0.1 µM) is recorded as 20%.

Regarding `CCOCCS(=O)(=O)c1ccc(Nc2nc(N)c(C(=O)c3c(Cl)cccc3Cl)s2)cc1` [DD(233)], the inhibition at 0.1 µM amounted to 11%, the inhibition at 1 µM was -12% and the inhibition at 0.03 µM came to 8.4%.

As for `CN(C)CCC[S+]([O-])c1cccc(Nc2nc(N)c(C(=O)c3c(Cl)cccc3Cl)s2)c1` (stereo not drawn) [DD(130)], the inhibition at 0.1 µM turned out to be 41%, the inhibition at 1 µM stood at 56% and the inhibition at 0.03 µM worked out at 12%.

Regarding `CC(C)CCCS(=O)(=O)c1ccc(Nc2nc(N)c(C(=O)c3c(Cl)cccc3Cl)s2)cc1` [DD(190)], the inhibition at 0.1 µM was 25%, the “% Inhib CDK4/D @ 1 μM” value is 33.4% and the “% Inhib CDK4/D @ 0.03” value is recorded as −21%.

(Values after patent US20040176431A1, “Antiproliferative 2-(sulfo-phenyl)-aminothiazole derivatives and pharmaceutical compositions, and methods for their use” (Pfizer, Inc., priority 2003, published 2004).)
